# Experimental data from patent EP0087397A2, “Propionylglycine derivative, process for its preparation and therapeutic compositions which contain it as the active principle” (Farmatis S.r.l., priority 1982, dated 1983).
# Counter-ions that a name gives are not always drawn. Like-named read-outs stand apart in the source and are kept apart here.
# Tests used:
# DIFCO gastric mucin = test: Mucolytic activity on gastric mucin (in vitro, Ostwald viscosimeter); assay type: biochemical; settings: for Residual Viscosity in %: 5 minutes at 25°C, average of six readings, % of initial viscosity
# Method: The mucolytic activity was measured using DIFCO gastric mucin (10 g dissolved in 100 ml of phyaiological solution).
# (§1) The mucolytic compounds under test were incubated for 5 minutes at 25°C under constant agitation, mixing 1 ml of aqueous solution of product, having increasing molar quantities of the product being considered, with 10 ml of mucin. The viscosity was measured both before and after incubation, using an Ostwald viscosimeter with 1.5 mm capillaries. […] Each value represents the average of six readings.
# [1] = Mucolytic activity on nonpurulent excreta (in vitro, viscosity); design: species or system chronic bronchitis patients; settings: AC and MP in tamponed solution
# Method: as §1
# Mucolytic activity on nonpurulent excreta The mucolytic activity was measured using a pool of nonpurulent excreta obtained from chronic bronchitis patients. The excreta was diluted 1:1 with a physiological solution and homogenized for three minutes - using a glass homogenizer - and then filtered through gauze and used immediately. The method used here is the same as described in the previous paragraph. In this case, however, the residual viscosity was determined after 5 minutes at 25°C (a) and after 40 minutes at 37°C (b).
# [2] = system: bronchial hypersecretion induced in rats using S02; test: In vivo mucolytic activity: bronchial hypersecretion induced by SO2; settings: for number of rats which developed bronchial obstruction, expressed as a percentage of the animals not protected: oral 0.25 g/kg/die for two weeks, 300 ppm SO2 two hours per day, total 90 hours
# Method: This was determined by means of bronchial hypersecretion induced in rats using […]. The rats were treated by oral administration of 0.25 g/kg/die of mucolytic product for a period of two weeks, followed by inhalation of 300 ppm of SO2 for two hours per day for a total of 90 hours.
# [3] = system: intrabronchial desquamation and reactive hyperplasia of the mucosa; test: Trophic-protective activity, nebulized CCl4; assay type: in vivo, rats; settings: 0.25 g/kg/die orally for ten days, nebulized CCl4, 5 applications of 2 minutes/die
# Method: This was determined in rats by the administration of 0.25 g/kg/die, orally, of the product for a period of ten days while, contemporaneously, treating with nebulized CCl4 (5 applications of 2 minutes/die).
# carragenin = test: Antiphlogistic activity, carragenin paw test; assay type: in vivo, rats; settings: for ED50: Rattus norvegicus, sc, 3 h
# Method: This was determined on rats by means of the administration of the product,using an esophagus probe, one hour before making a subcutaneous injection of 0.05 ml of 1% carragenin solution in the right hind paw. After three hours, the volume of the treated paw was compared to the left hind paw, using a plethysmograph.
# aerosol histaminic shock = test: Antibronchospasmic activity, aerosol histaminic shock; assay type: in vivo; settings: for time for the onset of the convulsions: 0.1 g/kg i.p., histamine aerosol two hours after pretreatment
# Description: […] The time was taken for the onset of the convulsions after having started administering the aerosol.
# Acute toxicity = assay type: in vivo; settings: mouse, in vivo, mice, read-out: DL50 (the source's name)
# Description: (§2) The acute toxicity determined in mice is shown by the values in Table 5 below: […]
# mice = test: Acute toxicity; assay type: in vivo
# Description: as §2
# rats and dogs = test: Subacute and chronic toxicity, gastric probe; assay type: in vivo; settings: subacute 12 weeks in rats; chronic 6 months in rats and dogs, 0.1 - 0.5 g/kg/die; statement also covers fetal toxicity tests
# Method: The subacute toxicity of the new product being practically the same for either case of oral or endovenous administration, the administration was only done by.means of a gastric probe.
# (§3) The subacute toxicity tests were carried out for 12 weeks on the rats, the chronic toxicity on rats and dogs for 6 months (0.1 - 0.5 g/kg/die) and the fetal toxicity tests were carried out on rats (0.1 - 0.5 g/kg/die between the 6th and 16th days gravidity) and on rabbits (0.1 - 0.3 g/kg/die between the 6th and 18th days of gravidity).
# rats, rabbits = test: Fetal toxicity; assay type: in vivo; settings: rats 0.1 - 0.5 g/kg/die, 6th to 16th day of gravidity; rabbits 0.1 - 0.3 g/kg/die, 6th to 18th day
# Method: as §3
# rats = test: Tolerability at the lung level (surfactant, type II pneumocytes) in rats of the chronic toxicity test; assay type: in vivo; settings: at termination of chronic treatment
# Description: In order to evaluate the tolerability at the lung level, for the same rats undergoing the chronic toxicity test, a determination of the influence made at the surfactant level was done at the termination of the treatment. A phospholipids analysis was made, obtaining qualitative data by means of TLC chromographic analysis and quantitative data by phosphorous determination. Gas chromographic analysis was made of the fatty acid content in liposomes separated.by centrifuging from the liquid in which the excised lungs had been washed.
# [4] = Pharmacokinetics: urinary elimination, titrimetric method; assay type: in vivo, rats; settings: for dose excreted at 5 h: rat, urine, 800 mg/kg
# Method: The pharmcokinetic tests were carried out on rats after having administered 0.8 g/kg of the new product, orally, and using an esophagus probe.
# The urinary elimination tests were carried out using the ti- trimetric method. Each sample was treated with an equal volume of 20% HCL, titrating the sulfhydrylic groups with M/100 potassium bromate until the disappearance of the yellow color and calculating the amount of contained new compound (I) by means of a calibrated curve obtained by the same method. The velocity of urinary excretion is maximum within the first two hours after administration. Maximum values obtained after 5 hours amount to about 20% of the amount administered. Administering the same dose (0.8 g/kg) to a rat by means of a rectal suppository of very small dimensions, the cumulative amount in per cent eliminated in the urine within the first five hours is about 12 %.
# chronic bronchitis cases = test: Preliminary clinical tests in chronic bronchitis cases; assay type: in vivo; settings: for diminuition of excreta viscosity: 4th-5th day of treatment, cone and plate rotary viscosimeter
# Method: In the clinical field, preliminary tests were performed with the new compound by giving daily doses of 0.5 g,parenterally, 0.8 g, by aerosol, and 1 g,either orally or rectally, to chronic bronchitis cases. There was a progressive diminuition of excreta viscosity at the 4th-5th day of treatment, 70% in the case of purulent expectoration and 50% in the case of muco- purulent expectoration. The values were measured by means of a cone and plate, rotary viscosimeter. There was an average increase of 20% in vital capacity, 15% in VEMS and a reduction of residual volume of about 20%.
# This test proves once more that the new product is well tolerated in comparison with the other compounds having free thiolic action.
# [5] = Molar Conc. 0.015, (a) after 5 minutes at 25°C
# [6] = Molar Conc. 0.015, (b) after 40 minutes at 37°C
# [7] = Molar Conc. 0.03, (a) after 5 minutes at 25°C
# [8] = Molar Conc. 0.03, (b) after 40 minutes at 37°C
# [9] = Molar Conc. 0.06, (a) after 5 minutes at 25°C
# [10] = Molar Conc. 0.06, (b) after 40 minutes at 37°C
# [11] = esophagus probe one hour before 0.05 ml 1% carragenin s.c. in right hind paw, paw volume after three hours, read-out: DE50 (the source's name)
# [12] = daily 0.5 g parenterally, 0.8 g aerosol or 1 g orally or rectally
Structure (SMILES),"Residual Viscosity in % (DIFCO gastric mucin; Molar Conc. 0.015, 15000 µM) [%]","Residual Viscosity in % (DIFCO gastric mucin; Molar Conc. 0.03, 30000 µM) [%]","Residual Viscosity in % (DIFCO gastric mucin; Molar Conc. 0.06, 60000 µM) [%]","Residual Viscosity in % [1, 5] [%]","Residual Viscosity in % [1, 6] [%]","Residual Viscosity in % [1, 7] [%]","Residual Viscosity in % [1, 8] [%]","Residual Viscosity in % [1, 9] [%]","Residual Viscosity in % [1, 10] [%]","number of rats which developed bronchial obstruction, expressed as a percentage of the animals not protected [2] [%]",prevention of intrabronchial desquamation and reactive hyperplasia of the mucosa [3] [%],ED50 (carragenin; [11]) [mg/kg],time for the onset of the convulsions (aerosol histaminic shock) [s],"LD50 (Acute toxicity; ip, i.p) [mg/kg]","LD50 (Acute toxicity; iv, e.v.) [mg/kg]","LD50 (Acute toxicity; po, os) [mg/kg]",further results
"CC(=O)N[C@@H](CS)C(=O)O [AC, N-acetylcysteine]",91,86,66,87,82,68,62,40,33,16,≤ 50,830,210,400,–,–,–
"CC(=O)Oc1ccccc1C(=O)O [ASA, acetylsalicylic acid]",–,–,–,–,–,–,–,–,–,–,–,–,–,–,–,–,ED50 (carragenin; read-out: DE50): 100 mg/kg
"NC(CSCC(=O)O)C(=O)O (stereo not drawn) [CM, S-carboxymetylcystine]",–,–,–,–,–,–,–,–,–,29,≤ 50,–,–,–,–,–,"values lower than those obtained with the MP compound (DIFCO gastric mucin; tests of Tables 1 and 2 (mucin and excreta) repeated, relative to MP): 30%; DE50 (carragenin; esophagus probe one hour before 0.05 ml 1% carragenin s.c. in right hind paw, paw volume after three hours): not measurable"
"O=C(O)CNC(=O)CCS [MP, beta-mercaptopropionylamidoacetic acid]",88,84,65,82,78,63,56,40,31,16,≤ 50,–,210,–,–,–,"DE50 (carragenin; esophagus probe one hour before 0.05 ml 1% carragenin s.c. in right hind paw, paw volume after three hours, 180 min): 785 mg/kg; DL50 (mice; e.v.): 3.10 g/kg; DL50 (mice; i.p): 1.54 g/kg; DL50 (mice; os): 3.20 g/kg"
"CC(S)C(=O)NCC(=O)O (stereo not drawn) [MP/A, alpha-mercaptopropionylamidoacetic acid]",–,–,–,–,–,–,–,–,–,14.5,≤ 50,780,200,1280,2240,2190,values obtained compared with the beta isomer (MP) (DIFCO gastric mucin; tests of Tables 1 and 2 (mucin and excreta) repeated): substantially the same as those obtained with the beta isomer (MP)
"O=C(O)CNC(=O)CCS [MPCa, calcium salt of beta-mercapto propionylamidoacetic acid]",83,75,59,76,71,44,36,32,24,12.5,–,650,250,1710,3470,3510,"persistence of the -SE groups in the cells of the bronchial mucosa ([2]; D.D.D. coloration): almost complete persistence; reduction of calyciform hyperplasia ([2]; bronchial mucosa, P.A.S. coloration, less than control group): 40%; number of muciparous cells ([2]; bronchial mucosa, histological and histochemical tests): significant reduction; prevention of intrabronchial desquamation and reactive hyperplasia of the mucosa ([3]; listed as The new compound): 65%; increase of time for the onset of the convulsions (aerosol histaminic shock; 48 hours after administration): 30%; tolerability (rats and dogs): Very good tolerability; effects on the mothers and on the characteristics of the offspring (rats, rabbits): no negative effects; surfactant level (phospholipids, fatty acid content) compared with the control group (rats): No significant differences; dose excreted at 5 h ([4]; po, rats, 0.8 g/kg orally, after 5 hours, read-out: urinary elimination, % of the amount administered): ~20%; time of maximum velocity of urinary excretion ([4]; rats, 0.8 g/kg orally): two; dose excreted at 5 h ([4]; 0.8 g/kg rectal suppository, within the first five hours, read-out: cumulative amount in per cent eliminated in the urine): ~12%; bronchospasmic manifestations (chronic bronchitis cases; aerosol treatment, plethysmograph in broncholabile patients): no bronchospasmic manifestations were observed; average increase in VEMS (chronic bronchitis cases; [12]): 15%; average increase in vital capacity (chronic bronchitis cases; [12]): 20%; reduction of residual volume (chronic bronchitis cases; [12]): about 20%; diminuition of excreta viscosity (chronic bronchitis cases; muco-purulent expectoration): 50%; diminuition of excreta viscosity (chronic bronchitis cases; purulent expectoration): 70%"
